“Also recorded” adds a separate entry of the source.
Tests used:
WI-38-tert cells = assay: Senescence / quiescence in WI-38-tert fibroblasts; format: cell-based, human
Description: (§1) FIG. 4. […] HT-p21-a cells were treated with IPTG and infected with Ad-p53. After 3 days, cells were photographed (original magnification ×200): Upper panel. Under blue light to visualize cells expressing p53 (green cells). Lower panel. Under visible light to visualize all cells. Red arrows indicate cells lacking p53 expression. All of these cells show large, flat cell morphology. Green arrows indicate cells expressing p53. b-d. […] After 1 day, cells were lysed and immunoblot was performed as described in Methods for Example 1. c. […] Cells were then stained for beta-Gal activity and microphotographed. Scale bar—50 μm.d. […] Cells were then trypsinized and counted. […] Results are shown as percent of control.
FIG. 11. Effects of Ad-p21 and Ad-p53 on senescent morphology in WI-38-tert fibroblasts. WI-38-tert cells were infected with either p21-expressing adenovirus (Ad-p21) or p53-expressing adenovirus (Ad-p53) or both. After 3 days, cells were stained for beta-Gal.
(§2) Cell lines and reagents. HT-p21-9 and HT-p21-a cells are derivatives of HT1080 human fibrosarcoma cells, where p21 expression can be turned on or off using isopropyl-thio-galactosidase (IPTG) (7, 16, 28, 29, 36). […] HT-p16 cells are derivatives of HT1080 cells in which p16 expression can be turned on or off using IPTG (16, 36). WI-38-Tert, WI-38 are fibroblasts immortalized by telomerase. HT-p21-GSE56 cells: p53 inhibiting peptide GSE56 (18) was introduced into HT1080 p21-9 cells via a retroviral vector LXSE (37). Cells were grown in high glucose DMEM with 10% FC2 serum. WI-38-tert cells were grown in low glucose DMEM with 10% FCS. Rapamycin was obtained from LC Laboratories (Woburn, Mass.). IPTG (final concentration of 50 μg/ml) and FC2 were obtained from Sigma-Aldrich (St. Louis, Mo.).
(§3) Beta-galactosidase staining Beta-gal staining was performed using Senescence-galactosidase staining kit (Cell Signaling Technology).

HT-p21-9 cells [1] = assay: Senescent morphology and beta-Gal staining of HT-p21-9 cells (IPTG-induced p21); format: cell-based, human; conditions: for cell divisions / arrest in the presence of nutlin-3a alone: nutlin-3a (10 μM), low cell density
Description: (§4) FIG. 1. Nutlin-3a converted senescence into quiescence. a. […] Cells were stained for beta-Gal and photographed (original magnification ×400). Bar scale—50 μm. b. […] Then cells were cultured in fresh medium until colonies become visible. Dishes were stained with crystal violet and photographed on day 4 (control) or on day 9 (IPTG- and nutlin-3a-treated).c. […] Before wash. Live HT-p21-9 cells (expressing GFP for better visualization of live cells) were photographed (original magnification ×100) under blue light. 3 d wash. Three days after drug removal. 9 d wash. Nine days after drug removal, cells were stained with crystal violet and photographed. d. Nutlin-3a dose response. […] After 3 days, the plates were washed and cells were incubated for an additional 9 days in fresh medium, stained with crystal violet and photographed. e. Colonies per dish. […] After 3 days, the plates were washed and cells were incubated for an additional 9 days in fresh medium. Colonies were counted and results are shown as percent of control (IPTG alone). f. Cells per dish. As in panel e. Cells were trypsinized and counted. Results are shown as percent of control (IPTG alone).
FIG. 5. Senescent versus quiescent morphology. […] Live cells, visualized with GFP (×100). In control, cells underwent 3 divisions, forming micro-colony.
as §2, §3

HT-p21-9 cells [2] = assay: Colony formation / proliferative potential after drug removal, HT-p21-9 cells; format: cell-based, human
Description: as §4
(§5) FIG. 3. […] Immunoblot. […] Immunoblot was performed as described in the methods for Example 1 below. b. Immunoblot. […] Immunoblot was performed as described in Methods. c. […] After 3 days, cells were washed and incubated in fresh medium w/o drugs for an additional 7 days. Cells were counted and are shown as percent of IPTG alone. d. […] Cells were treated with either IPTG alone (black bars) or IPTG plus rapamycin (white bars) or plus nutlin-3a (grey bars). On days 2, 3, 4, and 5 cells were lysed and protein content per well was measured. […] Cells were labeled with [^35S]methionine/cysteine as described in Methods for Example 1.
FIG. 6. […] Nine days after drug removal. a. Cell number per dish. Cells per dish were counted. b. Cell number per a colony. Number of cells per colony was calculated. A number of cells per colony was 200-250 (approximately equals to 8 divisions) by day 9.
as §2
Colony formation assay. Plates were fixed and stained with 1.0% methylene blue or with crystal violet (13).

HT-p21-9 cells [3] = assay: Protein content per cell (cellular hypertrophy), IPTG-treated HT-p21-9 cells; format: cell-based, human; conditions: days 2-5
Description: as §5

HT-p21-9 cells [4] = conditions: HT-p21-9 cells; Huang et al. 2009; cited from earlier work
mTOR pathway = assay: Immunoblot for p53, p-S6, p-S6K in WI-38-tert fibroblasts; format: cell-based, human
Description: as §1
FIG. 12. […] Immunoblot for p53, p-S6, p-S6K, S6 and actin was performed as described in Methods for Example 1.
Immunoblot analysis. Proteins were separated on 4-15% gradient Tris-HCl gels (Bio-Rad). The following antibodies were used: mouse anti-actin from Santa Cruz Biotechnology, rabbit anti-phospho-S6 (Ser240/244) and (Ser235/236), mouse anti-S6, mouse anti-phospho-p70 S6 kinase (Thr389), mouse anti-p21 and anti-p53, rabbit anti-phospho-4E-BP1 (Thr37/46) from Cell Signaling; mouse anti-4E-BP1 from Invitrogen, mouse anti-p53 (Ab-6) from Calbiochem.

[5] = test system: HT-p21-a cells, HT-p16 cells; assay: Preservation of proliferative potential in IPTG-treated HT-p21-a and HT-p16 cells, nutlin-3a versus nutlin-3b; format: cell-based, human; conditions: IPTG-regulated p16- and p21-expressing cells
Excerpt: FIG. 7. […] Then medium was changed and cells were counted after 8 days. b. […] Then medium was changed and cells were counted after 5 days.
as §2

[6] = 200 μM H2O2 30 min, then 10 μM nutlin-3a, 1 day

**Q.** Which results are given for `COc1ccc(C2=N[C@@H](c3ccc(Cl)cc3)[C@@H](c3ccc(Cl)cc3)N2C(=O)N2CCNC(=O)C2)c(OC(C)C)c1` [nutlin-3a]?
**A.** senescence induced by H2O2 (WI-38-tert cells; 10 μM nutlin-3a 3 days, washed, 3 more days, beta-Gal): suppressed senescence induced by H2O2; proliferative potential in H2O2-treated cells (WI-38-tert cells; 10 μM nutlin-3a 3 days, washed, 6 more days): partially preserved proliferative potential; type of arrest in WI-38-tert cells (WI-38-tert cells; compound alone): caused quiescence; cell morphology and SA-beta-Gal staining (HT-p21-9 cells [1]; 10 μM nutlin-3a alone, 3 days): remained small, lean and SA-beta-Gal-negative; senescent morphology caused by IPTG (HT-p21-9 cells [1]; IPTG plus compound (10 μM nutlin-3a), 3 days): prevented the senescent morphology caused by IPTG; also recorded: suppressed senescence in IPTG-treated HT-p21-9 cells only; cytostatic effect of IPTG (HT-p21-9 cells [1]; IPTG plus nutlin-3a): did not abrogate the cytostatic effect of IPTG; cell divisions / arrest in the presence of nutlin-3a alone (HT-p21-9 cells [1]; 3 days): underwent one division and did not proliferate further; cell divisions / arrest in the presence of nutlin-3a alone (HT-p21-9 cells [1]; 3 days, listed as Nutlin-3a): arrested after one division with normal cell morphology; proliferative potential and clonogenicity of IPTG-treated cells (HT-p21-9 cells [2]; IPTG plus nutlin-3a 3 days, washed, fresh medium): retained the proliferative potential and clonogenicity; number of cells per colony (HT-p21-9 cells [2]; IPTG+nutlin-3a 3 days, day 9 after drug removal): 200-250; potency in suppression of senescence (preservation of proliferative potential) (HT-p21-9 cells [2]; IPTG-treated HT-p21-9 cells): equally potent; reversibility of arrest (colony formation upon removal) (HT-p21-9 cells [2]; nutlin-3a alone 3 days, then washed): reversible arrest; further suppression of senescence by nutlin-3a in the presence of rapamycin (HT-p21-9 cells [2]; rapamycin (500 nM) at doses that completely inhibit mTOR): could not further suppress senescence; protein content per cell (HT-p21-9 cells [3]): decreased the protein content per cell; cell cycle arrest on induction of p53 by nutlin-3a (HT-p21-9 cells [4]): reversible cell cycle arrest (quiescence); S6 phosphorylation in H2O2-treated WI-38-tert cells (mTOR pathway; [6]): inhibited S6 phosphorylation; p53 level in H2O2-treated WI-38-tert cells (mTOR pathway; [6]): induced p53; S6K and S6 phosphorylation (mTOR pathway; concentrations that induce p53, 24 hr): inhibited S6K and S6 phosphorylation; conversion of senescence into quiescence (preservation of proliferative potential) [5]: preservation of proliferative potential

Source: US20120283269A1, “Method and Compositions for Suppression of Aging” (HEALTH RESEARCH INC., priority 2009, published 2012)
